Earlier results, collected in US20080182860A1, “Pyrimidine Compounds as Purine Receptor Antagonist” (VERNALIS (R&D) LTD., priority 2004, published 2008).

Tests used:
[1] = tested on: adenosine A2A receptor
[2] = tested on: Parkinsonian patients; settings: 150 mg/day slow release oral

serum theophylline levels ([2]; after one week, 15 Parkinsonian patients) | Structure (SMILES) | anticataleptic effects of a subthreshold dose of L-DOPA plus benserazide ([1]; in vivo) | catalepsy induced by haloperidol and reserpine ([1]; in vivo) | cataleptic responses induced by intracerebroventricular CGS 21680 ([1]; oral administration) | mean objective disability scores ([2]; up to 12 weeks)
 | CCCn1c(=O)c2c(nc(/C=C/c3ccc(OC)c(OC)c3)n2C)n(CCC)c1=O [KF 17837, (E)-8-(3,4-dimethoxystyryl)-1,3-dipropyl-7-methylxanthine] | potentiated | reduced | significantly ameliorated | 
4.44 mg/L | Cn1c(=O)c2[nH]cnc2n(C)c1=O [Theophylline, 1,3-dimethylxanthine] |  |  |  | significant improvements
